pIC50: −log10 of the molar value.
biological target: HPK1 (MAP4K1) (Homo sapiens, UniProt Q92918); experiment: HPK1 (MAP4K1) kinase Lantha screen assay; assay type: biochemical
Method: The effect of the compounds on the activity of HPK1 (MAP4K1) kinase were assessed by Lantha screen assay. • 1. 1×kinase buffer was prepared (50 mM HEPES, pH 7.5, 10 mM MgCl2, 4 mM DT • 2. Compound and assay plates preparation: • 2-1) The compound was diluted to 100× of the final desired highest inhibitor concentration in reaction by 100% DMSO. For example, if a compound was tested at […], then a solution at 500 µM in DMSO was prepared in this step. • 2-2) For each tested compound, the compound was transferred in tubes to one well on a 96-well storage plate and serially diluted by transferring […] of 100% DMSO in the next well and so forth for a total of 6 concentrations. • 2-3) 100 μl of 100% DMSO were added to two empty wells to serve as no compound control and no enzyme control in the same 96-well plate. The resulting plate was labeled as the source plate. • 2-4) 40 μl of compound from source plate were transferred to a new 384-well Echo plate as the intermediate plate. 100 nl of each well from the 384-well Echo plate were transferred to a 384-well assay plate in duplicates. For example, A1 of the 384-well Echo plate was transferred to A1 and A2 of the 384-well plate. A2 of the 384-well Echo plate was transferred to A3 and A4 of the 384-well plate, and so on; • 3. Kinase reaction: a solution of MAP4K1 in 1× kinase buffer at 2-fold the final concentration of each reagent in the assay was prepared. 5 μl of kinase solution was added to each well of the assay plate, except for control wells without enzyme (add 5 μl of 1× kinase buffer instead). The plate was then shaken, then incubated at room temperature for 10 min. A substrate solution of Fluorescein-PKC and ATP in 1× kinase reaction buffer at 2-fold of the final concentration of each reagent desired in the assay was prepared. 5 μl of substrate solution was added to each well of the assay plate to start reaction. The plate was shaken, then covered, and incubated at room temperature for 90 minutes.
Kinase detection: detection solution of 2-fold of final concentration in Antibody Dilution Buffer was prepared. 10 μl of detection solution was added to each well of the assay plate to stop the reaction. The mixtures were mixed briefly with Centrifuge and incubated at room temperature 60 minutes before reading on a plate reader for fluorescence. Data was collected on Envision with excitation at 340 nm and emission at 520 nm and 495 nm.

HPK1 (MAP4K1), sequence (Q92918 whole entry, species assumed): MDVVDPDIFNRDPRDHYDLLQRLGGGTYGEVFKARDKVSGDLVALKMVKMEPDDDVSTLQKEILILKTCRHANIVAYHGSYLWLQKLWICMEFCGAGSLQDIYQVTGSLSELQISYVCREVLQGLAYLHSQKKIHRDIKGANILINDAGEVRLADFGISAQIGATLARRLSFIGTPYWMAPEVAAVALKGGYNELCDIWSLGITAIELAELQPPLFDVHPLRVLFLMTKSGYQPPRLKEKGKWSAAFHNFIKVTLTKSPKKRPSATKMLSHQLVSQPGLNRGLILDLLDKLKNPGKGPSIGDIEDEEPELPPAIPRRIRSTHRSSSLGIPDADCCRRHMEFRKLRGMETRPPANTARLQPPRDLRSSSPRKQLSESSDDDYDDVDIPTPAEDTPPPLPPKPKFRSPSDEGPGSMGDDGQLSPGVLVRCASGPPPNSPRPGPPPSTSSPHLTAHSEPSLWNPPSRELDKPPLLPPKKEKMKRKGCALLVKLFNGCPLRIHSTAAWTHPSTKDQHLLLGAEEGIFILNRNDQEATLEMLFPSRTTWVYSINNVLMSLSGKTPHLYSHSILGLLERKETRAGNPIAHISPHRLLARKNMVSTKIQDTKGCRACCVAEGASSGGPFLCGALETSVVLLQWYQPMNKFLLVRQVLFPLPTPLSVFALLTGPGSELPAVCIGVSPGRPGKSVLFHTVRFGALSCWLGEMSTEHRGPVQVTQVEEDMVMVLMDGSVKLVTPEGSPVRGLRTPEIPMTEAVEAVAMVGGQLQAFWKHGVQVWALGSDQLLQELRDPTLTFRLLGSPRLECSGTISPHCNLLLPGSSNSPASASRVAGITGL

SMILES	pIC50
Cc1ccc(Nc2ncc3c(n2)N2CCN=C2C(c2cc(NC(=O)c4cccc(C(F)(F)F)c4)ccc2C)=C3)cn1 [Compound 207, N-(4-methyl-3-(2-((6-methylpyridin-3-yl)amino)-8,9-dihydroimidazo[1′,2′:1,6]pyrido[2,3-d]pyrimidin-6-yl)phenyl)-3-(trifluoromethyl)benzamide]	> 7.00
Clc1ccccc1C1=Cc2cnc(Nc3ccc(N4CCOCC4)nc3)nc2N2CCN=C12 [Compound 100, 6-(2-chlorophenyl)-N-(6-morpholinopyridin-3-yl)-8,9-dihydroimidazo[1′,2′:1,6]pyrido[2,3-d]pyrimidin-2-amine]	5.00 to 7.00
CC(=O)Nc1ncc2c(n1)N1CCN=C1C(c1cc(NC(=O)c3cc(C(F)(F)F)ccn3)ccc1C)=C2 [Compound 118, N-(3-(2-acetamido-8,9-dihydroimidazo[1′,2′:1,6]pyrido[2,3-d]pyrimidin-6-yl)-4-methylphenyl)-4-(trifluoromethyl)picolinamide]	5.00 to 7.00
CNc1nc(C)c2c(n1)N1CCN=C1C(c1cc(NC(=O)c3cc(C(F)(F)F)ccn3)ccc1Cl)=C2 [Compound 123, N-(4-chloro-3-(4-methyl-2-(methylamino)-8,9-dihydroimidazo[1′,2′:1,6]pyrido[2,3-d]pyrimidin-6-yl)phenyl)-4-(trifluoromethyl)picolinamide]	< 5.00
CNc1ncc2c(n1)N1CCN=C1C(c1cc(NC(=O)c3ccnc(C(C)(C)C#N)c3)ccc1C)=C2 [Compound 162, 2-(2-cyanopropan-2-yl)-N-(4-methyl-3-(2-(methylamino)-8,9-dihydroimidazo[1′,2′:1,6]pyrido[2,3-d]pyrimidin-6-yl)phenyl)isonicotinamide]	> 7.00
CNc1ncc2c(n1)N1CCN=C1C(c1cc(NC(=O)C3CC(C(F)(F)F)CCN3)ccc1C)=C2 (stereo not drawn) [Compound 154, N-(4-methyl-3-(2-(methylamino)-8,9-dihydroimidazo[1′,2′:1,6]pyrido[2,3-d]pyrimidin-6-yl)phenyl)-4-(trifluoromethyl)piperidine-2-carboxamide]	< 5.00
CNc1ncc2c(n1)N1CCN=C1C(c1cc(C(=O)Nc3cc(C(F)(F)F)ccn3)c(F)cc1C)=C2 [Compound 277, 2-fluoro-4-methyl-5-(2-(methylamino)-8,9-dihydroimidazo[1′,2′:1,6]pyrido[2,3-d]pyrimidin-6-yl)-N-(4-(trifluoromethyl)pyridin-2-yl)benzamide]	5.00 to 7.00
Cc1cc(F)c(NC(=O)C2(C(=O)Nc3ccc(F)cc3)CC2)cc1C1=Cc2cnc(NC3COC3)nc2N2CCN=C12 [Compound 344, N-(2-fluoro-4-methyl-5-(2-(oxetan-3-ylamino)-8,9-dihydroimidazo[1′,2′:1,6]pyrido[2,3-d]pyrimidin-6-yl)phenyl)-N-(4-fluorophenyl)cyclopropane-1,1-dicarboxamide]	< 5.00
CNc1ncc2c(n1)N1CCN=C1C(c1cc(NC(=O)c3cc(C(F)(F)F)ncn3)ccc1C)=C2 [Compound 151, N-(4-methyl-3-(2-(methylamino)-8,9-dihydroimidazo[1′,2′:1,6]pyrido[2,3-d]pyrimidin-6-yl)phenyl)-6-(trifluoromethyl)pyrimidine-4-carboxamide]	5.00 to 7.00
Cc1ccc(Nc2ncc3c(n2)N2CCN=C2C(c2cc(NC(=O)c4cc(C(F)(F)F)ccn4)c(F)cc2C)=C3)cn1 [Compound 267, N-(2-fluoro-4-methyl-5-(2-((6-methylpyridin-3-yl)amino)-8,9-dihydroimidazo[1′,2′:1,6]pyrido[2,3-d]pyrimidin-6-yl)phenyl)-4-(trifluoromethyl)picolinamide]	> 7.00
COc1ccncc1Nc1ncc2c(n1)N1CCN=C1C(c1cc(NC(=O)c3cc(C(F)(F)F)ccn3)ccc1C)=C2 [Compound 223, N-(3-(2-((4-methoxypyridin-3-yl)amino)-8,9-dihydroimidazo[1′,2′:1,6]pyrido[2,3-d]pyrimidin-6-yl)-4-methylphenyl)-4-(trifluoromethyl)picolinamide]	5.00 to 7.00
Cc1cc(F)c(NC(=O)c2cccc(C(F)(F)F)n2)cc1C1=Cc2cnc(NC3COC3)nc2N2CCN=C12 [Compound 179, N-(2-fluoro-4-methyl-5-(2-(oxetan-3-ylamino)-8,9-dihydroimidazo[1′,2′:1,6]pyrido[2,3-d]pyrimidin-6-yl)phenyl)-6-(trifluoromethyl)picolinamide]	5.00 to 7.00
CNc1ncc2c(n1)N1CCN=C1C(c1cc(NC(=O)c3cccc(C(F)(F)F)c3)ncc1C)=C2 [Compound 190, N-(5-methyl-4-(2-(methylamino)-8,9-dihydroimidazo[1′,2′:1,6]pyrido[2,3-d]pyrimidin-6-yl)pyridin-2-yl)-3-(trifluoromethyl)benzamide]	5.00 to 7.00
Cc1cc(F)c(NC(=O)c2cccc(C(C)(C)C#N)n2)cc1C1=Cc2cnc(NC3COC3)nc2N2CCN=C12 [Compound 182, 6-(2-cyanopropan-2-yl)-N-(2-fluoro-4-methyl-5-(2-(oxetan-3-ylamino)-8,9-dihydroimidazo[1′,2′:1,6]pyrido[2,3-d]pyrimidin-6-yl)phenyl)picolinamide]	5.00 to 7.00
CNc1ncc2c(n1)N1C[C@H](C)N=C1C(c1cc(NC(=O)c3cc(C(F)(F)F)ccn3)ccc1C)=C2 [Compound 126, (S)—N-(4-methyl-3-(8-methyl-2-(methylamino)-8,9-dihydroimidazo[1′,2′:1,6]pyrido[2,3-d]pyrimidin-6-yl)phenyl)-4-(trifluoromethyl)picolinamide]	5.00 to 7.00

Second part, the molecule after the results:

pIC50	SMILES
< 5.00	CNc1ncc2c(n1)N1CCN=C1C(c1cc(NC(=O)c3ccnc(C(F)(F)F)n3)ccc1C)=C2 [Compound 147, N-(4-methyl-3-(2-(methylamino)-8,9-dihydroimidazo[1′,2′:1,6]pyrido[2,3-d]pyrimidin-6-yl)phenyl)-2-(trifluoromethyl)pyrimidine-4-carboxamide]
> 7.00	Cc1cnccc1Nc1ncc2c(n1)N1CCN=C1C(c1cc(NC(=O)c3cc(C(F)(F)F)ccn3)ccc1C)=C2 [Compound 213, N-(4-methyl-3-(2-((3-methylpyridin-4-yl)amino)-8,9-dihydroimidazo[1′,2′:1,6]pyrido[2,3-d]pyrimidin-6-yl)phenyl)-4-(trifluoromethyl)picolinamide]
< 5.00	CNc1ncc2c(n1)N1CCN=C1C(c1cc(NC(=O)c3cnnc(C(F)(F)F)c3)ccc1C)=C2 [Compound 150, N-(4-methyl-3-(2-(methylamino)-8,9-dihydroimidazo[1′,2′:1,6]pyrido[2,3-d]pyrimidin-6-yl)phenyl)-6-(trifluoromethyl)pyridazine-4-carboxamide]
5.00 to 7.00	Cc1ccc(NC(=O)c2cc(C(F)(F)F)ccn2)cc1C1=Cc2cnc(Nc3ccccn3)nc2N2CCN=C12 [Compound 216, N-(4-methyl-3-(2-(pyridin-2-ylamino)-8,9-dihydroimidazo[1′,2′:1,6]pyrido[2,3-d]pyrimidin-6-yl)phenyl)-4-(trifluoromethyl)picolinamide]
5.00 to 7.00	Cc1ccc(NC(=O)c2cc(C(F)(F)F)ccn2)cc1C1=Cc2cnc(Nc3cnccc3O)nc2N2CCN=C12 [Compound 224, N-(3-(2-((4-hydroxypyridin-3-yl)amino)-8,9-dihydroimidazo[1′,2′:1,6]pyrido[2,3-d]pyrimidin-6-yl)-4-methylphenyl)-4-(trifluoromethyl)picolinamide]
> 7.00	COc1ncccc1Nc1ncc2c(n1)N1CCN=C1C(c1cc(NC(=O)c3cc(C(F)(F)F)ccn3)ccc1C)=C2 [Compound 222, N-(3-(2-((2-methoxypyridin-3-yl)amino)-8,9-dihydroimidazo[1′,2′:1,6]pyrido[2,3-d]pyrimidin-6-yl)-4-methylphenyl)-4-(trifluoromethyl)picolinamide]
5.00 to 7.00	Cc1ccc(NC(=O)c2cc(C(F)(F)F)ccn2)cc1C1=Cc2cnc(Nc3ccncc3F)nc2N2CCN=C12 [Compound 219, N-(3-(2-((3-fluoropyridin-4-yl)amino)-8,9-dihydroimidazo[1′,2′:1,6]pyrido[2,3-d]pyrimidin-6-yl)-4-methylphenyl)-4-(trifluoromethyl)picolinamide]
5.00 to 7.00	CNc1ncc2c(n1)N1CCN=C1C(c1cc(NC(=O)c3cc(C(F)(F)F)c[nH]c3=O)ccc1C)=C2 [Compound 153, N-(4-methyl-3-(2-(methylamino)-8,9-dihydroimidazo[1′,2′:1,6]pyrido[2,3-d]pyrimidin-6-yl)phenyl)-2-oxo-5-(trifluoromethyl)-1,2-dihydropyridine-3-carboxamide]
5.00 to 7.00	Cc1ccc(NC(=O)c2cc(C(F)(F)F)ccn2)cc1C1=Cc2cnc(NC3CNC3)nc2N2CCN=C12 [Compound 116, N-(3-(2-(azetidin-3-ylamino)-8,9-dihydroimidazo[1′,2′:1,6]pyrido[2,3-d]pyrimidin-6-yl)-4-methylphenyl)-4-(trifluoromethyl)picolinamide]

Reference: patent US20230303570A1, “KINASE INHIBITORS AND USES THEREOF” (ABM Therapeutics Corporation, priority 2020, published 2023)
